Assay results as given in patent US12275726B2, “Aurora kinase inhibitors and use thereof” (WIGEN BIOMEDICINE TECHNOLOGY (SHANGHAI) CO., LTD., priority 2019, dated 2025).
Where two headings read alike, the source gives them in different places.

What was measured:
[1] = tested on: Human lung cancer H69 cells graft tumors; assay: Anti-tumor activity in nude mice bearing H69 graft tumors; type: in vivo; conditions: for in vivo anti-tumor activity compared with the positive control LY-3295668: 20 mg/kg bid*21, H69 graft tumors in nude mice, statement in words; for Anti-tumor effect: 20 mg/kg, bid*21, intragastric, suspension in 0.5% CMC-Na, NCI-H69 graft tumors in nude mice
Procedure: 1×10^7 H69 cells were injected into the right dorsal side of each nude mouse, and the animals were randomly grouped for administration after tumors grew to 150 mm^3. […] On Tuesday and Thursday each week, tumor volumes and body weight of mice were measured, and the nude mice were sacrificed on day 21 of administration.

Aurora-B kinase = Aurora-B kinase (Homo sapiens, UniProt Q96GD4); assay: Caliper Mobility Shift assay for inhibitory activity against aurora kinase (Aurora-B); type: biochemical; conditions: FAM-labeled polypeptide substrate, 25° C.
Procedure: (§1) The compounds were each subjected to gradient dilution from 10 μM to obtain a total of 10 concentrations. After the enzyme and kinase reaction solution (20 mM HEPES, pH 7.5, 0.01% Triton X-100) were mixed, the gradiently diluted compound was added. The mixture was incubate at room temperature for 10 min to allow the compound and enzyme to bind well. Then, FAM-labeled polypeptide was added as a substrate to carry out a kinase reaction at 25° C., and after a certain time, a stop solution was added.

[2] = tested on: human small cell lung cancer H69 cells; assay: Anti-proliferation activity against H69 cells (ATP content, 72 h); type: cell-based
Procedure: Tumor cells (human small cell lung cancer H69 cells) in logarithmic growth phase were seeded into a 384-well culture plate at 4×10^3 cells per well, 50 μL of medium was added to each well, and the mixtures were cultured overnight in a 37° C./5% CO2 incubator. After the cells adhered to the wall, the test compounds and the positive control drug at proper concentrations were each added, and five samples with different concentrations were prepared. A blank group was taken as a negative control group, and the resulting mixtures were cultured in an incubator for 72 h. 50 μL of CTL plus was then added to each well, and the number of cells was evaluated by measuring ATP content in the cells.

Aurora-A kinase = biological target: T1, Aurora-A kinase (Homo sapiens, UniProt O14965); assay: Caliper Mobility Shift assay for inhibitory activity against aurora kinase (Aurora-A); type: biochemical; conditions: FAM-labeled polypeptide substrate, 25° C.
T1 sequence (O14965 1-403): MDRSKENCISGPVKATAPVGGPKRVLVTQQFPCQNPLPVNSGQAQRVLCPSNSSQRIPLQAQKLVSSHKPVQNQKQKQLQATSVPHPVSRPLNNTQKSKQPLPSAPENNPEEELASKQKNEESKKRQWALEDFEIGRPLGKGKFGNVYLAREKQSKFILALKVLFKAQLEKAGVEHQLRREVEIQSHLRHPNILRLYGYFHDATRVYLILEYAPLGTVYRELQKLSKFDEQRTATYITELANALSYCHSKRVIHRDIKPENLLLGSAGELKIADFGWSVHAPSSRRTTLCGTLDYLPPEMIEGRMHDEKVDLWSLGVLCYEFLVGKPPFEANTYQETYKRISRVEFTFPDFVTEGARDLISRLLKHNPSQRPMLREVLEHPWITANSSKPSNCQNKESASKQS
Procedure: as §1

Aurora-B kinase, sequence (Q96GD4 whole entry): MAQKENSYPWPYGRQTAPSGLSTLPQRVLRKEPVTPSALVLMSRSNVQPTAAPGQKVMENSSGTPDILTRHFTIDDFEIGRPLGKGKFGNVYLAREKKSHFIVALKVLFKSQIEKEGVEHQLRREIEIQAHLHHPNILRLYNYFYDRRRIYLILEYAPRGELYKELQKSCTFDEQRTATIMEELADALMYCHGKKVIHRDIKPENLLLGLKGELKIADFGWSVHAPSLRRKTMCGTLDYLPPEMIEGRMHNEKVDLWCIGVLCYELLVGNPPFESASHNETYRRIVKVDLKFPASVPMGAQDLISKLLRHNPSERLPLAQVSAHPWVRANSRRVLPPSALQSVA

Row | IC50 (Aurora-B kinase) [nM] | IC50 ([2]; Homo sapiens, NCI-H69, 72 h) [nM] | IC50 (Aurora-A kinase) [nM] | IC50 [2] [nM] | SMILES | in vivo anti-tumor activity compared with the positive control LY-3295668 [1] | Anti-tumor effect [1] [% shrinking]
1 | 148 | 11 | 0.53 |  | O=C(O)C1(Cc2nc(Nc3nccs3)ccc2F)CCN(Cc2cccc(Cl)c2F)C(C(F)(F)F)C1 (centres unmarked) [Compound 1, 1-(3-chloro-2-fluorobenzyl)-4-((3-fluoro-6-(thiazol-2-ylamino)pyridin-2-yl)methyl)-2-(trifluoromethyl)piperidine-4-carboxylic acid] | significantly increased in vivo anti-tumor activity | 29
2 | 140 |  | 0.82 | 33 | CCC1CC(Cc2nc(Nc3nccs3)ccc2F)(C(=O)O)CCN1Cc1cccc(Cl)c1F (centres unmarked) [Compound 5, 1-(3-chloro-2-fluorobenzyl)-2-ethyl-4-((3-fluoro-6-(thiazol-2-ylamino)pyridin-2-yl)methyl)piperidine-4-carboxylic acid] |  | 9
3 | 78 | 49 | 0.57 |  | COCC1CC(Cc2nc(Nc3nccs3)ccc2F)(C(=O)O)CCN1Cc1cccc(Cl)c1F (centres unmarked) [Compound 6, 1-(3-chloro-2-fluorobenzyl)-4-((3-fluoro-6-(thiazol-2-ylamino)pyridin-2-yl)methyl)-2-(methoxymethyl)piperidine-4-carboxylic acid] | significantly increased in vivo anti-tumor activity | 30
4 | 286 | 52 | 0.74 |  | CCOCC1CC(Cc2nc(Nc3nccs3)ccc2F)(C(=O)O)CCN1Cc1cccc(Cl)c1F (centres unmarked) [Compound 7, 1-(3-chloro-2-fluorobenzyl)-2-(ethoxymethyl)-4-((3-fluoro-6-(thiazol-2-ylamino)pyridin-2-yl)methyl)piperidine-4-carboxylic acid] |  | 
5 | 128 | 19 | 2.4 |  | O=C(O)C1(Cc2nc(Nc3nccs3)ccc2F)CCN(Cc2cccc(Cl)c2F)C(CF)C1 (centres unmarked) [Compound 11, 1-(3-chloro-2-fluorobenzyl)-4-((3-fluoro-6-(thiazol-2-ylamino)pyridin-2-yl)methyl)-2-(fluoromethyl)piperidine-4-carboxylic acid] |  | 
6 | 113 | 590 | 0.64 |  | Cc1cnc(Nc2ccc(F)c(CC3(C(=O)O)CCN(Cc4cccc(Cl)c4F)C(C(F)(F)F)C3)n2)s1 (centres unmarked) [Compound 13, 1-(3-chloro-2-fluorobenzyl)-4-((3-fluoro-6-(5-methylthiazol-2-ylamino)pyridin-2-yl)methyl)-2-(trifluoromethyl)piperidine-4-carboxylic acid] |  | 
7 | 1490 | 770 | 0.62 |  | Cc1cc(Nc2ccc(F)c(CC3(C(=O)O)CCN(Cc4cccc(Cl)c4F)C(C(F)(F)F)C3)n2)n[nH]1 (centres unmarked) [Compound 15, 1-(3-chloro-2-fluorobenzyl)-4-((3-fluoro-6-((5-methyl-1H-pyrazol-3-yl)amino)pyridin-2-yl)methyl)-2-(trifluoromethyl)piperidine-4-carboxylic acid] |  | 
8 | > 3000 | 219 | 3.1 |  | CCC1CC(Cc2nc(Nc3cc(C)[nH]n3)ccc2F)(C(=O)O)CCN1Cc1cccc(Cl)c1F (centres unmarked) [Compound 19, 1-(3-chloro-2-fluorobenzyl)-2-ethyl-4-((3-fluoro-6-((5-methyl-1H-pyrazol-3-yl)amino)pyridin-2-yl)methyl)piperidine-4-carboxylic acid] |  | 
9 | 2470 | 58 | 0.57 |  | COCC1CC(Cc2nc(Nc3ncc(C)s3)ccc2F)(C(=O)O)CCN1Cc1cccc(Cl)c1F (centres unmarked) [Compound 23, 1-(3-chloro-2-fluorobenzyl)-4-((3-fluoro-6-(5-methylthiazol-2-ylamino)pyridin-2-yl)methyl)-2-(methoxymethyl)piperidine-4-carboxylic acid] |  | 
10 | > 3000 | 98 | 0.78 |  | COCC1CC(Cc2nc(Nc3cc(C)[nH]n3)ccc2F)(C(=O)O)CCN1Cc1cccc(Cl)c1F (centres unmarked) [Compound 25, 1-(3-chloro-2-fluorobenzyl)-4-((3-fluoro-6-((5-methyl-1H-pyrazol-3-yl)amino)pyridin-2-yl)methyl)-2-(methoxymethyl)piperidine-4-carboxylic acid] |  | 
11 | 90 | 24 | 1.3 |  | CCC1CC(Cc2nc(Nc3nccs3)ccc2F)(C(=O)O)CCN1Cc1cccc(Cl)c1F (centres unmarked) [Compound 29, 1-(3-chloro-2-fluorobenzyl)-2-ethyl-4-((3-fluoro-6-(thiazol-2-ylamino)pyridin-2-yl)methyl)piperidine-4-carboxylic acid] |  | 
